Source: ChEMBL document CHEMBL5390237, “Discovery of Selective Histone Deacetylase 1 and 2 Inhibitors: Screening of a Focused Library Constructed by Click Chemistry, Kinetic Binding Analysis, and Biological Evaluation” (J Med Chem, 2023)

Target: Histone deacetylase 2 (Homo sapiens, UniProt Q92769)
Test: Inhibition of full-length recombinant human C-terminal GST tagged HDAC2 expressed in Sf9 insect cells using aminoluciferin peptide substrate at 100 nM preincubated for 3 hrs followed by substrate addition and measured after 30 mins by HDAC-Glo I/II chemiluminescence assay
Settings: time 3.5 hrs

Chain of Histone deacetylase 2 (Q92769 whole entry): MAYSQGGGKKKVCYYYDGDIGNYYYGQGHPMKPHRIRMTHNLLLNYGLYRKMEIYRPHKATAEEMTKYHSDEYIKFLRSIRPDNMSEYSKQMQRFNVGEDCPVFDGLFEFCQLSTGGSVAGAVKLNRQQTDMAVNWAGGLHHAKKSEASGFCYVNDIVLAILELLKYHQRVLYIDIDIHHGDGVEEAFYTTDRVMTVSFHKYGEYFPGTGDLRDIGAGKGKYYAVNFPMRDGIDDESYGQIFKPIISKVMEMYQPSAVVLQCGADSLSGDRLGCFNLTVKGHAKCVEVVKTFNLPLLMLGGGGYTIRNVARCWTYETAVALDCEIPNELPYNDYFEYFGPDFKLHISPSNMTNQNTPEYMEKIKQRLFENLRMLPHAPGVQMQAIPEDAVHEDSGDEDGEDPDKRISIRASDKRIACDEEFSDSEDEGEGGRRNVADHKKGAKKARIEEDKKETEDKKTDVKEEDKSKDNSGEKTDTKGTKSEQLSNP

| inhibition | Structure (SMILES) |
| --- | --- |
| 0% | Nc1ccc(-c2cccnc2)cc1NC(=O)CCc1cn(Cc2ccc(Oc3ccccc3)cc2)nn1 |
| 8% | Nc1ccc(-c2ccc(F)cc2)cc1NC(=O)c1cn(Cc2ccc3ccccc3c2)nn1 |
| 3% | Nc1ccc(-c2cccs2)cc1NC(=O)c1ccc(-c2cn(CCc3ccc(Cl)cc3)nn2)s1 |
| 19% | COc1ccc(Cn2cc(C(=O)Nc3cc(-c4ccc(F)cc4)ccc3N)nn2)cc1 |
| 0% | Nc1ccc(-c2ccccc2)cc1NC(=O)c1cn(CCC2CCCC2)nn1 |
| 0% | Nc1ccc(-c2ccsc2)cc1NC(=O)CCc1cn(CCC2CCCCC2)nn1 |
| 0% | Nc1ccc(-c2ccccc2)cc1NC(=O)c1cn(CCc2ccc(C(F)(F)F)cc2)nn1 |
| 16% | Cc1ccc(CCn2cc(CCC(=O)Nc3cc(-c4ccccc4)ccc3N)nn2)cc1 |
| 16% | Nc1ccc(-c2cccs2)cc1NC(=O)c1ccc(-c2cn(CCc3ccccc3[N+](=O)[O-])nn2)s1 |
| 0% | Nc1ccc(-c2ccccc2)cc1NC(=O)CCc1cn(CCc2ccc(C(F)(F)F)cc2)nn1 |
| 0% | Nc1ccc(-c2cccnc2)cc1NC(=O)CCc1cn(Cc2cccc(-c3ccccc3)c2)nn1 |
| 7% | Nc1ccc(-c2cccs2)cc1NC(=O)c1cn(CCCCCCC(=O)O)nn1 |
| 1% | Nc1ccc(-c2cccs2)cc1NC(=O)CCc1cn(CCN2CCOCC2)nn1 |
| 17% | Nc1ccc(-c2ccsc2)cc1NC(=O)c1cn(CCc2ccccc2)nn1 |
| 21% | Cc1cccc(C)c1NC(=O)Cn1cc(C(=O)Nc2cc(-c3cccs3)ccc2N)nn1 |
| 30% | Cc1csc(CCn2cc(CCC(=O)Nc3cc(-c4cccs4)ccc3N)nn2)n1 |
| 18% | Nc1ccc(-c2ccsc2)cc1NC(=O)c1cn(CCN2CCc3ccccc3C2)nn1 |
| 27% | Nc1ccc(-c2cccs2)cc1NC(=O)CCc1cn(Cc2cc3ccccc3s2)nn1 |
| 0% | Nc1ccc(-c2ccc(F)cc2)cc1NC(=O)c1cn(Cc2ccc(-c3ccccc3)cc2)nn1 |
| 31% | Nc1ccc(-c2ccc(F)cc2)cc1NC(=O)c1cn(CCc2ccc(C(=O)O)cc2)nn1 |
| 30% | Nc1ccc(-c2cccnc2)cc1NC(=O)CCc1cn(CCc2cccc(Cl)c2)nn1 |
| 0% | Nc1ccc(-c2ccccc2)cc1NC(=O)CCc1cn(Cc2ccc(-c3ccccc3)cc2)nn1 |
| 14% | Nc1ccc(-c2cccs2)cc1NC(=O)c1cccc(-c2cn(Cc3cccc4ccccc34)nn2)c1 |
| 0% | Nc1ccc(-c2ccccc2)cc1NC(=O)CCc1cn(CC23CC4CC(CC(C4)C2)C3)nn1 |

| inhibition | Structure (SMILES) |
| --- | --- |
| 0% | Nc1ccc(-c2ccsc2)cc1NC(=O)c1cn(-c2ccccc2-c2ccccc2)nn1 |
| 1% | Nc1ccc(-c2ccccc2)cc1NC(=O)CCc1cn(CCc2cccc(Cl)c2)nn1 |
| 17% | Nc1ccc(-c2cccs2)cc1NC(=O)c1cn(Cc2ccc3ccccc3c2)nn1 |
| 0% | Nc1ccc(-c2ccccc2)cc1NC(=O)c1cn(CCc2c[nH]c3ccccc23)nn1 |
| 0% | Nc1ccc(-c2ccsc2)cc1NC(=O)c1cn(-c2ccc([N+](=O)[O-])cc2)nn1 |
| 51% | Nc1ccc(-n2cc(-c3ccc(C(=O)Nc4cc(-c5cccs5)ccc4N)cc3)nn2)cc1 |
| 0% | Nc1ccc(-c2cccs2)cc1NC(=O)c1cccc(-c2cn(CCC3CCCC3)nn2)c1 |
| 0% | Nc1ccc(-c2ccccc2)cc1NC(=O)c1cn(Cc2ccc(OC(F)(F)F)cc2)nn1 |
| 0% | Nc1ccc(-c2cccs2)cc1NC(=O)c1ccc(-c2cn(CCCCCCC(=O)O)nn2)cc1 |
| 0% | Nc1ccc(-c2cccs2)cc1NC(=O)c1cn(CCc2cccc(F)c2)nn1 |
| 7% | Nc1ccc(-c2cccnc2)cc1NC(=O)CCc1cn(Cc2ccc(C(=O)O)cc2)nn1 |
| 19% | Cc1cccc(C)c1NC(=O)Cn1cc(CCC(=O)Nc2cc(-c3cccs3)ccc2N)nn1 |
| 0% | Nc1ccc(-c2cccs2)cc1NC(=O)c1cn(Cc2ccc(-c3ccccc3)cc2)nn1 |
| 12% | Nc1ccc(-c2cccnc2)cc1NC(=O)CCc1cn(Cc2cccc3ccccc23)nn1 |
| 0% | Nc1ccc(-c2cccnc2)cc1NC(=O)CCc1cn(CC2CCCCC2)nn1 |
| 0% | Nc1ccc(-c2ccccc2)cc1NC(=O)CCc1cn(CCc2ccccn2)nn1 |
| 0% | Nc1ccc(-c2cccs2)cc1NC(=O)c1ccc(-c2cn(Cc3ccc(-c4ccccc4)cc3)nn2)s1 |
| 0% | Nc1ccc(-c2ccsc2)cc1NC(=O)c1cn(Cc2cccc(C(=O)O)c2)nn1 |
| 6% | COc1ccccc1CCn1cc(C(=O)Nc2cc(-c3cccs3)ccc2N)nn1 |
| 15% | Nc1ccc(-c2cccnc2)cc1NC(=O)CCc1cn(CCCc2ccccc2)nn1 |
| 4% | Cc1ccccc1CCn1cc(CCC(=O)Nc2cc(-c3ccccc3)ccc2N)nn1 |
| 32% | Nc1ccc(-c2cccs2)cc1NC(=O)c1cn(Cc2ccc(C(=O)O)cc2)nn1 |
| 4% | Nc1ccc(-c2cccs2)cc1NC(=O)CCc1cn(CCC2CCCCC2)nn1 |
| 5% | Nc1ccc(-c2cccs2)cc1NC(=O)c1ccc(-c2cn(CCc3ccccc3Cl)nn2)s1 |

| inhibition | Structure (SMILES) |
| --- | --- |
| 20% | Cc1cccc(CCn2cc(-c3ccc(C(=O)Nc4cc(-c5cccs5)ccc4N)s3)nn2)c1 |
| 0% | Nc1ccc(-c2ccccc2)cc1NC(=O)c1cn(-c2ccc(I)cc2)nn1 |
| 5% | Nc1ccc(-c2cccnc2)cc1NC(=O)CCc1cn(CCC23CC4CC(CC(C4)C2)C3)nn1 |
| 14% | Nc1ccc(-c2cccs2)cc1NC(=O)c1cn(CCc2c[nH]c3ccccc23)nn1 |
| 0% | Nc1ccc(-c2ccsc2)cc1NC(=O)c1cn(CCc2ccc(Cl)cc2)nn1 |
| 9% | Nc1ccc(-c2ccccc2)cc1NC(=O)CCc1cn(Cc2cccc3ccccc23)nn1 |
| 0% | Nc1ccc(-c2ccc(F)cc2)cc1NC(=O)c1cn(CCc2ccccc2Cl)nn1 |
| 0% | Nc1ccc(-c2ccsc2)cc1NC(=O)c1cn(-c2ccc(I)cc2)nn1 |
| 0% | Nc1ccc(-c2cccs2)cc1NC(=O)c1ccc(-c2cn(CCc3cccc(C(F)(F)F)c3)nn2)s1 |
| 1% | Nc1ccc(-c2ccc(F)cc2)cc1NC(=O)CCc1cn(CCc2ccc(C(F)(F)F)cc2)nn1 |
| 23% | Nc1ccc(-c2ccc(F)cc2)cc1NC(=O)c1cn(CCCCCCC(=O)O)nn1 |
| 12% | Nc1ccc(-c2ccccc2)cc1NC(=O)c1cn(CCc2ccccc2)nn1 |
| 16% | Nc1ccc(-c2ccc(F)cc2)cc1NC(=O)CCc1cn(CC(=O)Nc2ccc(F)cc2)nn1 |
| 5% | Nc1ccc(-c2ccc(F)cc2)cc1NC(=O)c1cn(CCC2CCCCC2)nn1 |
| 9% | Nc1ccc(-c2cccnc2)cc1NC(=O)CCc1cn(Cc2cc3ccccc3s2)nn1 |
| 24% | Nc1ccc(-n2cc(CCC(=O)Nc3cc(-c4ccsc4)ccc3N)nn2)cc1 |
| 20% | Nc1ccc(-c2ccc(F)cc2)cc1NC(=O)c1cn(CCCCCC(=O)O)nn1 |
| 21% | COc1ccc(CCn2cc(C(=O)Nc3cc(-c4cccs4)ccc3N)nn2)cc1 |
| 27% | Nc1ccc(-c2ccccc2)cc1NC(=O)CCc1cn(Cc2nc3ccccc3[nH]2)nn1 |
| 2% | Nc1ccc(-c2cccs2)cc1NC(=O)c1cn(CCC23CC4CC(CC(C4)C2)C3)nn1 |
| 5% | Nc1ccc(-c2cccs2)cc1NC(=O)CCc1cn(CCc2ccc(C(F)(F)F)cc2)nn1 |
| 0% | Nc1ccc(-c2ccc(F)cc2)cc1NC(=O)CCc1cn(-c2ccc(Br)cc2)nn1 |
| 69% | Nc1ccc(-c2cccs2)cc1NC(=O)c1ccc(-c2cn(CCN3CCOCC3)nn2)s1 |
| 8% | Nc1ccc(-c2cccs2)cc1NC(=O)c1cn(Cc2cc3ccccc3s2)nn1 |

| inhibition | Structure (SMILES) |
| --- | --- |
| 12% | Cc1csc(CCn2cc(C(=O)Nc3cc(-c4ccsc4)ccc3N)nn2)n1 |
| 22% | Nc1ccc(-c2cccs2)cc1NC(=O)c1ccc(-c2cn(CCc3cccc(F)c3)nn2)cc1 |
| 7% | Nc1ccc(-c2cccs2)cc1NC(=O)c1ccc(-c2cn(-c3ccc([N+](=O)[O-])cc3)nn2)s1 |
| 37% | Nc1ccc(-c2cccs2)cc1NC(=O)c1ccc(-c2cn(Cc3nc4ccccc4[nH]3)nn2)cc1 |
| 0% | Nc1ccc(-c2ccsc2)cc1NC(=O)CCc1cn(Cc2ccc(Oc3ccccc3)cc2)nn1 |
| 0% | Nc1ccc(-c2cccs2)cc1NC(=O)c1cccc(-c2cn(Cc3ccc(OC(F)(F)F)cc3)nn2)c1 |
| 30% | Cc1cccc(CCn2cc(CCC(=O)Nc3cc(-c4cccnc4)ccc3N)nn2)c1 |
| 0% | Nc1ccc(-c2ccc(F)cc2)cc1NC(=O)c1cn(Cc2ccc(OC(F)(F)F)cc2)nn1 |
| 4% | Nc1ccc(-c2cccs2)cc1NC(=O)c1ccc(-c2cn(-c3ccc([N+](=O)[O-])cc3)nn2)cc1 |
| 5% | Cc1ccc(-n2cc(-c3cccc(C(=O)Nc4cc(-c5cccs5)ccc4N)c3)nn2)cc1C |
| 0% | Nc1ccc(-c2ccc(F)cc2)cc1NC(=O)c1cn(Cc2cccc(C(=O)O)c2)nn1 |
| 10% | Nc1ccc(-c2ccsc2)cc1NC(=O)c1cn(C[S+]([O-])c2ccccc2)nn1 (stereo not given) |
| 9% | Nc1ccc(-c2cccnc2)cc1NC(=O)CCc1cn(CCc2ccccc2Cl)nn1 |
| 11% | Nc1ccc(-n2cc(C(=O)Nc3cc(-c4ccccc4)ccc3N)nn2)cc1 |
| 0% | Nc1ccc(-c2ccccc2)cc1NC(=O)c1cn(CCc2cccc(Cl)c2)nn1 |
| 0% | Nc1ccc(-c2cccs2)cc1NC(=O)CCc1cn(CC2CCCCC2)nn1 |
| 0% | Nc1ccc(-c2cccs2)cc1NC(=O)c1cccc(-c2cn(Cc3ccc(-c4ccccc4)cc3)nn2)c1 |
| 0% | Nc1ccc(-c2cccs2)cc1NC(=O)c1cccc(-c2cn(CCc3ccc(F)cc3)nn2)c1 |
| 3% | Nc1ccc(-c2ccc(F)cc2)cc1NC(=O)CCc1cn(/C=C/c2ccccc2)nn1 |
| 3% | COc1ccccc1CCn1cc(-c2cccc(C(=O)Nc3cc(-c4cccs4)ccc3N)c2)nn1 |
| 0% | Nc1ccc(-c2cccs2)cc1NC(=O)c1cccc(-c2cn(CC(=O)Nc3ccc(F)cc3)nn2)c1 |
| 24% | Nc1ccc(-c2cccs2)cc1NC(=O)CCc1cn(CCc2ccc(Cl)cc2)nn1 |
| 0% | Nc1ccc(-c2ccccc2)cc1NC(=O)CCc1cn(CCCCCCCC(=O)O)nn1 |
